Entries after “also recorded” stand apart in the source; their conditions may differ. Blank lines part the entries; values can stand above or below the molecule they belong to.
How the values were obtained:
[1] = Gino et al. (2001); cited from earlier work
[2] = Gino et al. (2001); cited from earlier work; remark: listed apart in the source
[3] = system: diabetic cataract formation; test: Cataract formation in diabetic rats; assay type: in vivo; details: streptozotocin diabetic rats
Experimental: Diabetes was induced in 100 g Sprague Dawley rats with streptozotocin injection (75 mg/kg) and all rats with blood sugar levels >300 mg/dL were divided into 4 groups of 8 rats each. One group received only standard rat chow (untreated diabetic) while each of the other groups received chow containing either 0.0125% ARI Al1576, 0.025% JHX-4 or 0.025% JHX-8. Lens changes were monitored by at 3-5 day intervals by slit lamp following tropicamide mydriasis. As summarized in FIGS. 8A-8C, vacuole formation began by 14 days in the untreated diabetic group with cortical opacities observed by 29 days and mature cataracts by 44 days. […] In the two antioxidant treated groups, vacuole formation was delayed by 19 and 11 days by JHX-4 and JHX-8, respectively, and cortical cataracts by 9 and 3 days, respectively. At the end of the study (47 days) all rats were equally diabetic with HbA1C levels >11.9%. All eyes were enucleated and lens sorbitol levels were measured as previously described (Kador et al. (2007) J. Ocul. Pharmacol. Ther., 23:116-23). […] Tissue levels of JHX-4 and -8 in the lens, neural retina and brain were determined after 47 days of feeding as described above (FIG. 10). […] Overall drug levels in both the lens and retina were ca. 3-fold higher in the diabetic rats with brain levels also now present. This increase may be due to either an accumulation of drug, or increased permeability of tissues and the BBB to drug in streptozotocin diabetic rats (Mooradian et al. (2005) Diabetes, 54:2977-82).

[4] = Chelation study by ESI-MS, Ca^2+ solution; assay type: binding; details: 10:1 metal:compound, 45 minutes of mixing
Experimental: (§1) The relative amount of ions bound by JHX-1-JHX-8 was determined by electrospray ionization mass spectrometry (ESI-MS) according to the method of Baron and Hering (Baron and Hering (1998) Spectrometry J. Environ. Qual., 27:844-850). In this method solutions containing Fe^2+, Fe^3+, Cu^1+, Cu^2+, Zn^2+, Ca^2+, Mg^2+ were mixed with compound in ratios of 10:1, 1:1, and 1:10. After 45 minutes of mixing, each solution was directly infused into the MS with constant ionization energy and the relative decreases of the parent peaks in these solutions were determined. […] FIG. 3 illustrates ion binding with increased Fe^+2 concentrations results in decreased compound parent peak heights by ESI-MS when compounds contain appropriate functional groups for metal ion chelation.

[5] = Chelation study by ESI-MS, Mg^2+ solution; assay type: binding; details: 10:1 metal:compound, 45 minutes of mixing
Experimental: as §1

[6] = Chelation study by ESI-MS, Fe^3+ solution; assay type: binding; details: 10:1 metal:compound, 45 minutes of mixing
Experimental: as §1

[7] = Chelation study by ESI-MS, Fe^2+ solution; assay type: binding; details: 10:1 metal:compound, 45 minutes of mixing
Experimental: as §1

[8] = Chelation study by ESI-MS, Zn^2+ solution; assay type: binding; details: 10:1 metal:compound, 45 minutes of mixing
Experimental: as §1

[9] = Chelation study by ESI-MS, Cu^2+ solution; assay type: binding; details: 10:1 metal:compound, 45 minutes of mixing
Experimental: as §1

[10] = Chelation study by ESI-MS, Cu^1+ solution; assay type: binding; details: 10:1 metal:compound, 45 minutes of mixing
Experimental: as §1

[11] = system: SRA-1 human lens epithelium cell line; test: MTS cell viability assay; assay type: cell-based; details: 1 mM compound; for protection against H2O2 induced loss of cell viability: 1.0 mM H2O2, 2 hours
Experimental: The SRA-1 human lens epithelium cell line (Ibaraki et al. (1998) Exp. Eye Res., 67:577-85) was used to evaluate the antioxidant activity of JHX-1-8. […] The cells were passaged when 80-90% confluent by treatment with trypsin-EDTA. The cells were plated at a density of 1×10^4 cells onto 96-well plates or 1×10^6 cells onto 100-mm dishes. ROS levels/effects in cells treated with JHX-1-8 were compared to similar cells treated with the water soluble Vitamin E derivative, Trolox (antioxidant control) or no drug (control). […] Cells were cultured in 96-well plates and exposed for 2 hours to media containing 1.0 mM H2O2 (FIG. 5A) or Fenton reagents (1.0 mM H2O2 and 1.0 mM Fe^2+, FIG. 5B) with/without 1 mM JHX-1-8 or Trolox. Viability was measured as the absorbance of MTS stain at 490 nm 1 hour after the addition of 20 μL of […] AQueous One Solution Cell Proliferation Assay to each well. The results were normalized to blank control (100%) since absorbance is directly proportional to the living cell population.

[12] = system: SRA-1 human lens epithelial cells; test: ROS staining (H2DCF-DA) in lens epithelial cells; assay type: cell-based; details: 24 hour incubation, H2DCF-DA stain; for ROS staining, ROS initiated by homocysteine: 10 mM homocysteine (ER stress); for ROS staining, ROS generated by Fenton reaction: 0.1 mM Fe^2+ and 0.1 mM hydrogen peroxide
Experimental: The SRA-1 human lens epithelium cell line (Ibaraki et al. (1998) Exp. Eye Res., 67:577-85) was used to evaluate the antioxidant activity of JHX-1-8. These cells were cultured in DMEM media containing 10% fetal bovine serum (FBS), glutamine, NaHCO3, penicillin, and streptomycin at 37° C. in humidified atmosphere of 5% CO2 and 95% air until subconfluent (2-4 days). The cells were passaged when 80-90% confluent by treatment with trypsin-EDTA. The cells were plated at a density of 1×10^4 cells onto 96-well plates or 1×10^6 cells onto 100-mm dishes. ROS levels/effects in cells treated with JHX-1-8 were compared to similar cells treated with the water soluble Vitamin E derivative, Trolox (antioxidant control) or no drug (control).
The compounds were initially screened for antioxidant activity in 24 hour cultured SRA-1 human lens epithelial cells. Reactive oxygen species (ROS) in these cells were generated through both the Fenton reaction in which 0.1 mM Fe^2+ and 0.1 mM hydrogen peroxide were added to the culture media, or by culturing the lens with 10 mM homocysteine which induces endoplasmic reticular (ER) stress that results in the unfolded protein response (UPR) that subsequently generates the ROS. ROS were visualized with 2′,7′-dichlorodihydrofluorescein diacetate (DCF) staining. More specifically, after 24 hours of incubation, all cells were washed 2× with PBS and then incubated at room temperature for 1 hour with 10 μM H2DCF-DA (Invitrogen) stain. Fluorescent ROS staining was analyzed by quantifying pixel intensities of images obtained by fluorescent microscopy. As illustrated below in FIGS. 4A and 4B, compounds with chelating groups only produced a dose-dependent reduction in Fenton Reaction generated ROS. […] Indeed, homocysteine activates ER stress which subsequently initiates ROS through an Unfolded Protein Response (UPR).

[13] = Chelation studies by ESI-MS, overall statement on ion binding; details: binding order Cu^1+=Cu^2+>Fe^2+=Fe^3+>Zn^2+; no binding with Ca^2+ or Mg^2+
Experimental: as §1

SMILES: Cc1nc(N(C)C)nc(C)c1O [2-N,N-Dimethyl-4,6-dimethyl-5-hydroxypyrimidine]
- reactivity toward alkyl radicals compared to α-tocopherol [1]: 5 fold
- reactivity to peroxy radicals compared to α-tocopherol [2]: essentially equally reactive

SMILES: O=C1NC(=O)C2(N1)c1cc(F)ccc1-c1ccc(F)cc12 [AL1576, reference compound]
- lens changes by slit lamp ([3]; 0.0125% in chow, 47 days): No lens changes were observed
- lens sorbitol levels ([3]; end of study (47 days)): No sorbitol was present

SMILES: CN(C)S(=O)(=O)N1C(=O)CN(c2ncccn2)CC1=O [JHX-3, 1-N,N′-dimethylsulfamoyl-4-(2-pyrimidyl)piperazine-2,6-dione]
- % Parent Peak Remaining at 10:1 Solution of Metal:Compound [4]: 100.0%
- % Parent Peak Remaining at 10:1 Solution of Metal:Compound [5]: 100.0%
- ion binding [13]: bind ions
- ROS staining, ROS generated by Fenton reaction [12]: decreased staining; also recorded: protected against ROS
- % Parent Peak Remaining at 10:1 Solution of Metal:Compound [6]: 10.0%
- % Parent Peak Remaining at 10:1 Solution of Metal:Compound [7]: 8.1%
- % Parent Peak Remaining at 10:1 Solution of Metal:Compound [8]: 15.3%
- % Parent Peak Remaining at 10:1 Solution of Metal:Compound [9]: 4.4%
- % Parent Peak Remaining at 10:1 Solution of Metal:Compound [10]: 3.6%

SMILES: COc1cc(OC)nc(N2CC(=O)N(S(=O)(=O)N(C)C)C(=O)C2)n1 [JHX-7, 1-N,N′-dimethylsulfamoyl-4-(4,6-dimethoxy-2-pyrimidyl)piperazine-2,6-dione]
- % Parent Peak Remaining at 10:1 Solution of Metal:Compound [4]: 100.0%
- % Parent Peak Remaining at 10:1 Solution of Metal:Compound [5]: 100.0%
- ion binding [13]: bind ions
- ROS staining, ROS generated by Fenton reaction [12]: decreased staining; also recorded: protected against ROS
- % Parent Peak Remaining at 10:1 Solution of Metal:Compound [6]: 7.6%
- % Parent Peak Remaining at 10:1 Solution of Metal:Compound [7]: 7.3%
- % Parent Peak Remaining at 10:1 Solution of Metal:Compound [8]: 13.8%
- % Parent Peak Remaining at 10:1 Solution of Metal:Compound [9]: 3.4%
- % Parent Peak Remaining at 10:1 Solution of Metal:Compound [10]: 4.1%

SMILES: Cc1c(C)c2c(c(C)c1O)CCC(C)(C(=O)O)O2 (stereo not shown) [Trolox, reference compound]
- increase of HLEC viability compared to controls ([11]; Fenton reagents (1.0 mM H2O2 and 1.0 mM Fe^2+), 2 hours): 15%

More lines, main results first:

- % Parent Peak Remaining at 10:1 Solution of Metal:Compound [4]: 100.0%
- % Parent Peak Remaining at 10:1 Solution of Metal:Compound [5]: 100.0%
- % Parent Peak Remaining at 10:1 Solution of Metal:Compound [6]: 100.0%
- % Parent Peak Remaining at 10:1 Solution of Metal:Compound [7]: 100.0%
- % Parent Peak Remaining at 10:1 Solution of Metal:Compound [8]: 100.0%
- % Parent Peak Remaining at 10:1 Solution of Metal:Compound [9]: 100.0%
- % Parent Peak Remaining at 10:1 Solution of Metal:Compound [10]: 100.0%
SMILES: CN(C)S(=O)(=O)N1CCN(c2ncccn2)CC1 [JHX-1, 1-N,N′-dimethylsulfamoyl-4-(2-pyrimidyl)piperazine]

- % Parent Peak Remaining at 10:1 Solution of Metal:Compound [4]: 100.0%
- % Parent Peak Remaining at 10:1 Solution of Metal:Compound [5]: 100.0%
- % Parent Peak Remaining at 10:1 Solution of Metal:Compound [6]: 100.0%
- % Parent Peak Remaining at 10:1 Solution of Metal:Compound [7]: 100.0%
- % Parent Peak Remaining at 10:1 Solution of Metal:Compound [8]: 100.0%
- % Parent Peak Remaining at 10:1 Solution of Metal:Compound [9]: 100.0%
- % Parent Peak Remaining at 10:1 Solution of Metal:Compound [10]: 100.0%
SMILES: CN(C)S(=O)(=O)N1CCN(c2ncc(O)cn2)CC1 [JHX-2, 1-N,N′-dimethylsulfamoyl-4-(5-hydroxy-2-pyrimidyl)piperazine]
- protection against H2O2 induced loss of cell viability [11]: protecting against H2O2 induced loss of cell viability
- ROS staining, ROS initiated by homocysteine [12]: reduced ROS staining similar to that with Trolox

- % Parent Peak Remaining at 10:1 Solution of Metal:Compound [4]: 100.0%
- % Parent Peak Remaining at 10:1 Solution of Metal:Compound [5]: 100.0%
- % Parent Peak Remaining at 10:1 Solution of Metal:Compound [6]: 100.0%
- % Parent Peak Remaining at 10:1 Solution of Metal:Compound [7]: 100.0%
- % Parent Peak Remaining at 10:1 Solution of Metal:Compound [8]: 100.0%
- % Parent Peak Remaining at 10:1 Solution of Metal:Compound [9]: 100.0%
- % Parent Peak Remaining at 10:1 Solution of Metal:Compound [10]: 100.0%
SMILES: COc1cc(OC)nc(N2CCN(S(=O)(=O)N(C)C)CC2)n1 [JHX-5, 1-N,N′-dimethylsulfamoyl-4-(4,6-dimethoxy-2-pyrimidyl)piperazine]

- % Parent Peak Remaining at 10:1 Solution of Metal:Compound [4]: 100.0%
- % Parent Peak Remaining at 10:1 Solution of Metal:Compound [5]: 100.0%
- % Parent Peak Remaining at 10:1 Solution of Metal:Compound [6]: 100.0%
- % Parent Peak Remaining at 10:1 Solution of Metal:Compound [7]: 100.0%
- % Parent Peak Remaining at 10:1 Solution of Metal:Compound [8]: 100.0%
- % Parent Peak Remaining at 10:1 Solution of Metal:Compound [9]: 100.0%
- % Parent Peak Remaining at 10:1 Solution of Metal:Compound [10]: 100.0%
SMILES: COc1nc(N2CCN(S(=O)(=O)N(C)C)CC2)nc(OC)c1O [JHX-6, 1-N,N′-dimethylsulfamoyl-4-(4,6-dimethoxy-5-hydroxy-2-pyrimidyl)piperazine]
- protection against H2O2 induced loss of cell viability [11]: protecting against H2O2 induced loss of cell viability
- ROS staining, ROS initiated by homocysteine [12]: reduced ROS staining similar to that with Trolox

— patent US8268849B2, “Multifunctional Antioxidants and methods of use thereof” (priority 2007, dated 2012)
